# Calls of active or inactive are those of the source.
# Tests used:
# Streptokinase A = molecular target: T1, Streptokinase A (Streptococcus pyogenes serotype M1, UniProt P10520); assay: viability-normalized secreted streptokinase activity reduction – plasminogen activation absorbance, OD405, dose response (AID 1914); type: functional, Streptococcus pyogenes M1 GAS;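 note: secreted streptokinase activity via plasminogen activation per viability signal from cell pellet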
# T1 sequence (P10520 whole entry): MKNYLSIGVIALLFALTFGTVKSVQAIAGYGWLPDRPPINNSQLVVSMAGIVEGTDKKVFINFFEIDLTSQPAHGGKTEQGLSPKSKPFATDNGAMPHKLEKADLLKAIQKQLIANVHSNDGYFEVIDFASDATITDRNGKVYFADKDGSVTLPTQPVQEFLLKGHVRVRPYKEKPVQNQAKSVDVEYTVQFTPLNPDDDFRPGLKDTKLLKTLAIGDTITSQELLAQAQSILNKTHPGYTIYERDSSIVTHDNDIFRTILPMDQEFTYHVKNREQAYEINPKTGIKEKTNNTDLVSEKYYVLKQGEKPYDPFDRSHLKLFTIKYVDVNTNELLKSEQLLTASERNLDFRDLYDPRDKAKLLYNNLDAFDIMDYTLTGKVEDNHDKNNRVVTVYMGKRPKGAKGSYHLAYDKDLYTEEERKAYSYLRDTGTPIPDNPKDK
# [1] = Luminescence Cell-Based Dose Response HTS to Identify Inhibitors of 5'UTR Stem-Loop Driven Prion Protein mRNA Translation in H4 Neuroglioblastoma Cells. [Related pubchem assays: 1827 (Project Summary), 1813 (Primary HTS)]; type: functional
# Vero = assay: cells; type: functional; conditions: Chlorocebus sabaeus
# [2] = Luminescence Cell-Based Dose Confirmation HTS to Identify Inhibitors of Polyadenylation.; type: functional
# [3] = test system: Streptococcus sp. 'group A'; assay: Streptococcus pyogenes SK(-)GAS viability under kanamycin – luminescence, BacTiterGlo, confirmation, counter-screen for streptokinase expression inhibitor project, dose response (AID 1900); type: functional, organism-based
# [4] = alpha-synuclein stem-loop luciferase translation blockers – H4 neuroglioma cells, luminescence, confirmation (AID 1988); type: functional, cell-based
# [5] = luciferase reporter signal suppression in cells – H4 neuroglioma cells, luminescence, dose response (AID 1990); type: functional, cell-based
# Streptococcus = assay: GAS UMAA2166 growth inhibition – luminescence, BacTiterGlo, counter-screen for streptokinase expression inhibitor project, dose response (AID 1915); type: functional, organism-based;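 note: potency for reduction of bacterial viability or growth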
# [6] = molecular target: Peroxisome proliferator-activated receptor gamma/Nuclear receptor coactivator 1 (Homo sapiens, UniProt P37231); type: functional;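 note: agonist potency as compounds enhance coactivator SRC-1 recruitment to PPARgamma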
# Sequence of Peroxisome proliferator-activated receptor gamma/Nuclear receptor coactivator 1 (P37231 whole entry): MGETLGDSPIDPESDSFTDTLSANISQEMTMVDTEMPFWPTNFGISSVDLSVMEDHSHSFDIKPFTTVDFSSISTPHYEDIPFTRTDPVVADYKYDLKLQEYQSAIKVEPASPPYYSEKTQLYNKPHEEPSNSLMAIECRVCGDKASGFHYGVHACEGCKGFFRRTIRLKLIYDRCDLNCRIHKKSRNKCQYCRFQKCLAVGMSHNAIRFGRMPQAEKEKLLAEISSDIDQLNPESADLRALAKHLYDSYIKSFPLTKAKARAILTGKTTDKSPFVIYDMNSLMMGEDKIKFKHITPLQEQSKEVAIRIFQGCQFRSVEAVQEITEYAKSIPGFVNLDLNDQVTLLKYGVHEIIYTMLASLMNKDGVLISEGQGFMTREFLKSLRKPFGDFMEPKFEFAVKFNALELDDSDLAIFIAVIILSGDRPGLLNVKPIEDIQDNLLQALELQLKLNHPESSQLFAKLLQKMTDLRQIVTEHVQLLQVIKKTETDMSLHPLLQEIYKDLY
# Sequence of Peroxisome proliferator-activated receptor gamma/Nuclear receptor coactivator 1 (Q15788 whole entry, further chain): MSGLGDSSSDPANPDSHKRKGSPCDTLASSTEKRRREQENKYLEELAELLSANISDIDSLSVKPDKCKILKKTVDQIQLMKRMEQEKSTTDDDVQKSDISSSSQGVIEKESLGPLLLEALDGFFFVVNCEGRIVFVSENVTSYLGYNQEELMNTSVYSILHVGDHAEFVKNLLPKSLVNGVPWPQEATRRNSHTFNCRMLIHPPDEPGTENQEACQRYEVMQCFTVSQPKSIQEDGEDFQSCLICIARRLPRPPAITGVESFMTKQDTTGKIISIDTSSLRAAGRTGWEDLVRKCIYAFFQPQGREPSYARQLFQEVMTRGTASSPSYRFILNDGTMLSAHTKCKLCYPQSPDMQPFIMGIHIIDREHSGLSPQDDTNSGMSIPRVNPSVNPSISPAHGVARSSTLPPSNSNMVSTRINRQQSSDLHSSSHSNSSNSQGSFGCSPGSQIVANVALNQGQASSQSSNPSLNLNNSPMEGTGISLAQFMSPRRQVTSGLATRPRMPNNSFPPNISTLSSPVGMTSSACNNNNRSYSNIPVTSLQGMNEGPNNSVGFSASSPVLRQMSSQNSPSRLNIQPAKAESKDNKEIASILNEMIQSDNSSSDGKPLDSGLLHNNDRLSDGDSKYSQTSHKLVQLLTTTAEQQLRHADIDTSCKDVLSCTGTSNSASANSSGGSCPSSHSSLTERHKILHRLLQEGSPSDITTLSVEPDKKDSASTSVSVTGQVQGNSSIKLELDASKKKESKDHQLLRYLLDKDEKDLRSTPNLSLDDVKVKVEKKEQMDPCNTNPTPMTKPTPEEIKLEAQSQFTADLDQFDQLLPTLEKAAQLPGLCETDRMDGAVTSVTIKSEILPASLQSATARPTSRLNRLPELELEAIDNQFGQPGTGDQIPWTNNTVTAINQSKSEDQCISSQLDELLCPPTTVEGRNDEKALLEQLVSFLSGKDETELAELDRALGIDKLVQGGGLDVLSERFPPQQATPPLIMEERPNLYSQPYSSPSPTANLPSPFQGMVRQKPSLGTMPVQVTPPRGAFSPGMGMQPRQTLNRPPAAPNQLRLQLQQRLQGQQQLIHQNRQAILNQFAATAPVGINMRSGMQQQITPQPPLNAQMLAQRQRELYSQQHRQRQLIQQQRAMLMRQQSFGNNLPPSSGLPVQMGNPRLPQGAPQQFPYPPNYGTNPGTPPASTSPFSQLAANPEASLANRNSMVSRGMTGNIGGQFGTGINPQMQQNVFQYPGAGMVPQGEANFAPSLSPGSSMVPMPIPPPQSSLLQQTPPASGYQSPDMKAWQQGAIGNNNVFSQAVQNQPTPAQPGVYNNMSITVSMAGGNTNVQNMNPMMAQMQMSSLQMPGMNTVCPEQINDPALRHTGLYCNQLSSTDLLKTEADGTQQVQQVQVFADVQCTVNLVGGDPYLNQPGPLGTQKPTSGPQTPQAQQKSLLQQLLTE
# [7] = molecular target: Peroxisome proliferator-activated receptor gamma/Nuclear receptor coactivator 3 (Homo sapiens, UniProt P37231); type: functional;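 note: agonist potency for raising coactivator recruitment to the receptor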
# Sequence of Peroxisome proliferator-activated receptor gamma/Nuclear receptor coactivator 3 (P37231 whole entry): as the sequence (P37231 whole entry) above
# Sequence of Peroxisome proliferator-activated receptor gamma/Nuclear receptor coactivator 3 (Q9Y6Q9 whole entry, further chain): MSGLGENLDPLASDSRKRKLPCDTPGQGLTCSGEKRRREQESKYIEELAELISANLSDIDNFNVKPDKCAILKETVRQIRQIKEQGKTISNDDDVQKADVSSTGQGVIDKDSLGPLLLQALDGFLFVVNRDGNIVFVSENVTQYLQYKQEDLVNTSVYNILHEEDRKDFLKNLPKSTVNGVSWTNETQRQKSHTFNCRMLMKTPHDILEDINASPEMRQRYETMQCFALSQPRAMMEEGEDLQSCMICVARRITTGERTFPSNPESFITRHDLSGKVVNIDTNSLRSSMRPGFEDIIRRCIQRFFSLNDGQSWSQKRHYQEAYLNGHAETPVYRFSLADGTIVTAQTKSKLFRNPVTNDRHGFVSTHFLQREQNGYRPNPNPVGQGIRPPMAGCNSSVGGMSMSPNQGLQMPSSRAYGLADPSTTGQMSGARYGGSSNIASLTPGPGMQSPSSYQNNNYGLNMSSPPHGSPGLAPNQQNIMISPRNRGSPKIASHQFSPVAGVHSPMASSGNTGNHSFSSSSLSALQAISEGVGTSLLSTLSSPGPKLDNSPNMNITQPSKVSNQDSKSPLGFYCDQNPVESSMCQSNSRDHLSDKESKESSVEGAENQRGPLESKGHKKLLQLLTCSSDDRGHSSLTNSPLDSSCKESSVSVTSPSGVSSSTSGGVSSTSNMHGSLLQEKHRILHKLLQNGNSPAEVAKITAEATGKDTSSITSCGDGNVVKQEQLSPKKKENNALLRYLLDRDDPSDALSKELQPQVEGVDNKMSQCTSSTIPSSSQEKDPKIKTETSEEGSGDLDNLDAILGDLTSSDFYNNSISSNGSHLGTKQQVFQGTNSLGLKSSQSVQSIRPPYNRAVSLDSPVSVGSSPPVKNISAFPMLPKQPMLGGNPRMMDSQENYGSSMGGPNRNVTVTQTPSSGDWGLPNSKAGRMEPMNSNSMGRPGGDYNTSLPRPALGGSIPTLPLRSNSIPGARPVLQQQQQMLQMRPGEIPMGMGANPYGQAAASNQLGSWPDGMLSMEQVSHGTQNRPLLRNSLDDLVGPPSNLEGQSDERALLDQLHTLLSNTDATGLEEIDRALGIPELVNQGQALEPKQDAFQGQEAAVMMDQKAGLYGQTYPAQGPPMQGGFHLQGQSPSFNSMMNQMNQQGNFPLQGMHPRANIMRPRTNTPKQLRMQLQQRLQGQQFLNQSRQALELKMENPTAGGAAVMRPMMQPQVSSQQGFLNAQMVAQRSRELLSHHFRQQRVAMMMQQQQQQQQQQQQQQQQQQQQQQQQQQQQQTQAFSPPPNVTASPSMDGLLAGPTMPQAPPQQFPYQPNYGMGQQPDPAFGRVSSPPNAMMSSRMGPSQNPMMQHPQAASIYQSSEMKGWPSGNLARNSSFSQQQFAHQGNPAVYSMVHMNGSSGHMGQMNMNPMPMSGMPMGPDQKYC
# [8] = molecular target: Peroxisome proliferator-activated receptor gamma/Nuclear receptor coactivator 2 (Homo sapiens, UniProt P37231); type: functional;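 note: agonist potency for raising coactivator recruitment to the receptor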
# Bcl-2-like protein 10 = molecular target: T2, Bcl-2-like protein 10 (Homo sapiens, UniProt Q9HD36); assay: Concentration-response of Bcl-B inhibitors by biochemical FP with TR3 (AID 1243); type: functional
# T2 sequence (Q9HD36 whole entry): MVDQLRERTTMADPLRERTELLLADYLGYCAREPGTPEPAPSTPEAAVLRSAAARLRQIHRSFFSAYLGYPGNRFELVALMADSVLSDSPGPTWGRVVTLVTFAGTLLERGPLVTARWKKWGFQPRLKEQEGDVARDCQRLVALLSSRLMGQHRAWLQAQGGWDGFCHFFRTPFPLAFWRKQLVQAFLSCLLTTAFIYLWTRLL
# NS3 = NS3 (Hepatitis C virus, UniProt A3EZJ3); assay: PubChem AID 2173; parameters: species or system Hepacivirus hominis
# Sequence of NS3 (A3EZJ3 whole entry): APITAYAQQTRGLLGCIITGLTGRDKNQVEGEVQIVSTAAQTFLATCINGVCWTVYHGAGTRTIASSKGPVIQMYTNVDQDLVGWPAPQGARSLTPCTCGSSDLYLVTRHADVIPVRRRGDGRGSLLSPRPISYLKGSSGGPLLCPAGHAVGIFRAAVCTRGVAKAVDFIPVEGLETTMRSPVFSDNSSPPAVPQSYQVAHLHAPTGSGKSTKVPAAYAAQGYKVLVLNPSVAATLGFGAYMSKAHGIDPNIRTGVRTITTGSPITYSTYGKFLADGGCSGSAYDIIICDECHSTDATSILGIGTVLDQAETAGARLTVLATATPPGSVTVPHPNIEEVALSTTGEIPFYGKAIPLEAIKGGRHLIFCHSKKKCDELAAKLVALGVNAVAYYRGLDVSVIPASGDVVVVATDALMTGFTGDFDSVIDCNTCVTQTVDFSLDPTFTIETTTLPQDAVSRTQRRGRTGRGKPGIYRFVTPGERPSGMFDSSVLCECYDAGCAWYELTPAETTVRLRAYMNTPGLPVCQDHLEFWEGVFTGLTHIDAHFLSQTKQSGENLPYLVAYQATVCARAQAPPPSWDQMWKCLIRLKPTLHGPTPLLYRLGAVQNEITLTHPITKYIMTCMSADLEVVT
# Cytochrome P450 2D6 = Cytochrome P450 2D6 (Homo sapiens, UniProt P10635);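 note: CYP2D6 member of a cytochrome P450 panel assay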
# Cytochrome P450 2C19 = Cytochrome P450 2C19 (Homo sapiens, UniProt P33261); assay: Cytochrome panel assay with activity outcomes. Panel member name: p450-cyp2c19 Compounds with AC50 equal or less than 10 uM are considered active; type: functional; conditions: read-out: AC50
# Sequence of Cytochrome P450 2C19 (P33261 whole entry): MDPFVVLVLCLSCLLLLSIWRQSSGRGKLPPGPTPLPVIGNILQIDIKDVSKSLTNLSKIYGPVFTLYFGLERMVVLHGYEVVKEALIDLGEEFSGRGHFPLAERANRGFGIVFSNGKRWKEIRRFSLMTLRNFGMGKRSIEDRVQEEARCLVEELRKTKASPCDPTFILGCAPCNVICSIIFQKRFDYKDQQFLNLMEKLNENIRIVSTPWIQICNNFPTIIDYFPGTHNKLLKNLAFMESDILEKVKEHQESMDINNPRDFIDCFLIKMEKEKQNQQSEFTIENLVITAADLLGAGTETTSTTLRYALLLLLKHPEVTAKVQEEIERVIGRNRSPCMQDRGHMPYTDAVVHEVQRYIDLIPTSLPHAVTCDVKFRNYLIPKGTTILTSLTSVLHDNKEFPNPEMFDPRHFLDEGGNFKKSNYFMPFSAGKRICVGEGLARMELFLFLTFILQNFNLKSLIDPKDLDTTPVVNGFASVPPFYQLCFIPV
# Insulin-degrading enzyme = molecular target: T3, Insulin-degrading enzyme (Homo sapiens, UniProt P14735); assay: Dose Response: Fluorescence polarization-based cell-based high throughput dose response assay for inhibitors of insulin-degrading enzyme (IDE). [Related pubchem assays: 434962 (Primary screen (IDE inhibitors in singlicate)), 449730 (Counterscreen (Cytotoxicity in triplicate)), 435028 (Confirmation (IDE inhibitors in triplicate)), 434984 (Summary …; type: functional
# T3 sequence (P14735 whole entry): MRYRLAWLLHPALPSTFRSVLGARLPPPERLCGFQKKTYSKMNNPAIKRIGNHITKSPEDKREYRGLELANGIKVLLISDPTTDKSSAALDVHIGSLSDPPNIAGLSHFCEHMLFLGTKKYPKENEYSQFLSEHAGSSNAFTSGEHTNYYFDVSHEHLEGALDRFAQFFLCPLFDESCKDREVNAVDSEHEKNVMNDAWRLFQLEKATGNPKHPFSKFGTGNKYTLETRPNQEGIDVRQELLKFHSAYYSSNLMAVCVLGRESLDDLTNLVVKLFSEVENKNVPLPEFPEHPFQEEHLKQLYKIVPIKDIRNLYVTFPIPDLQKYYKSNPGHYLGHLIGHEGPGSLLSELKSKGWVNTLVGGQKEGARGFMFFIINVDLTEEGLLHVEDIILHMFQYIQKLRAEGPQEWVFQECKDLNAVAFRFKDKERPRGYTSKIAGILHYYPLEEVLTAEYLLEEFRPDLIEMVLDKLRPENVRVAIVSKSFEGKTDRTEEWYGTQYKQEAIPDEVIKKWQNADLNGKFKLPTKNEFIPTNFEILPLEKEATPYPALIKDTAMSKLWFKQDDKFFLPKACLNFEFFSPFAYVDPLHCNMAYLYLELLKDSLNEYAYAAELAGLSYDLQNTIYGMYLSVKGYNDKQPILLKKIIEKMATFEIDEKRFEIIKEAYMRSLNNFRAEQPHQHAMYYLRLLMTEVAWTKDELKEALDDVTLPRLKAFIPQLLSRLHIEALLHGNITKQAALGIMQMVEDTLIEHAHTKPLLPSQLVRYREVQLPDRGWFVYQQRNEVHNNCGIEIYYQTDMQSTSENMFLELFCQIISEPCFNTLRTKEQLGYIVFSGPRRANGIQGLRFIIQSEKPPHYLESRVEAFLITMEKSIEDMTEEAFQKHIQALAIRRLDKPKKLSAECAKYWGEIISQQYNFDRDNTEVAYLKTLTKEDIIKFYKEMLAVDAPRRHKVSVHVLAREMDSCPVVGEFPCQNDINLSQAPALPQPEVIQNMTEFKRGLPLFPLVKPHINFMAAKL
# [9] = Counterscreen for IDE inhibitors: Luminescence-based cell-based high throughput dose response assay to identify compounds that are cytotoxic to HEK cells. [Related pubchem assays: 434962 (Primary screen (IDE inhibitors in singlicate)), 449730 (Counterscreen (Cytotoxicity in triplicate)), 435028 (Confirmation (IDE inhibitors in triplicate)) …; type: functional; conditions: HEK293
# [10] = antiviral protection against BTV-induced cell death – arbovirus, BSR cells, confirmation (AID 1250); type: functional;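 note: protection from viral cytopathic effect measured as cell viability by ATP luminescence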
# Mucolipin-3 = molecular target: T4, Mucolipin-3 (Homo sapiens, UniProt Q8TDD5); assay: Dose response cell-based high-throughput screening assay for agonists of the transient receptor potential channel ML3 (TRPML3). [Related pubchem assays: 1526, 1424, 1448 ]; type: functional
# T4 sequence (Q8TDD5 whole entry): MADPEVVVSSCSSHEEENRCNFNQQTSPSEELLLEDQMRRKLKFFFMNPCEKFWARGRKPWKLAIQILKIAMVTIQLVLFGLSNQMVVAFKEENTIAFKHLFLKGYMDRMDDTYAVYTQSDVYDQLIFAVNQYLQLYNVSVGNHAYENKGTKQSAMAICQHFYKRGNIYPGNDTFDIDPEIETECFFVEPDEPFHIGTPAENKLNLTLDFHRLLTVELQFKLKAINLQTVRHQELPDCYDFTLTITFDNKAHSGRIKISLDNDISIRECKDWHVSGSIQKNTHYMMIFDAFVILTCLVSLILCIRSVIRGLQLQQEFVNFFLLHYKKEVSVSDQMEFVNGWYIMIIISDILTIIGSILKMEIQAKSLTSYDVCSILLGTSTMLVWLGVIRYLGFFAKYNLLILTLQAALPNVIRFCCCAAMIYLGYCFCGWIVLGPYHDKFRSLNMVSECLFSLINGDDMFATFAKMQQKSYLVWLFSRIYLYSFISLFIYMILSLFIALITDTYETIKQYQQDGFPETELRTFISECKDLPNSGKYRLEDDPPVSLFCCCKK
# Ion channel NompC = Ion channel NompC (Danio rerio, UniProt Q7T1G6); assay: Fluorescence counterscreen assay for TRPML3 agonists: dose response cell-based high-throughput screening assay to identify agonists of the transient receptor potential channel N1 (TRPN1). [Related pubchem assays: 1526, 1424, 1448 ]; type: functional
# Leucine aminopeptidase = molecular target: T5, Leucine aminopeptidase (Plasmodium falciparum 3D7, UniProt Q8IL11); assay: P. falciparum M17LAP inhibitors, primary screen, biochemical, fluorogenic H-Leu-NHMec substrate, 1536-well (AID 1619); type: functional
# T5 sequence (Q8IL11 whole entry): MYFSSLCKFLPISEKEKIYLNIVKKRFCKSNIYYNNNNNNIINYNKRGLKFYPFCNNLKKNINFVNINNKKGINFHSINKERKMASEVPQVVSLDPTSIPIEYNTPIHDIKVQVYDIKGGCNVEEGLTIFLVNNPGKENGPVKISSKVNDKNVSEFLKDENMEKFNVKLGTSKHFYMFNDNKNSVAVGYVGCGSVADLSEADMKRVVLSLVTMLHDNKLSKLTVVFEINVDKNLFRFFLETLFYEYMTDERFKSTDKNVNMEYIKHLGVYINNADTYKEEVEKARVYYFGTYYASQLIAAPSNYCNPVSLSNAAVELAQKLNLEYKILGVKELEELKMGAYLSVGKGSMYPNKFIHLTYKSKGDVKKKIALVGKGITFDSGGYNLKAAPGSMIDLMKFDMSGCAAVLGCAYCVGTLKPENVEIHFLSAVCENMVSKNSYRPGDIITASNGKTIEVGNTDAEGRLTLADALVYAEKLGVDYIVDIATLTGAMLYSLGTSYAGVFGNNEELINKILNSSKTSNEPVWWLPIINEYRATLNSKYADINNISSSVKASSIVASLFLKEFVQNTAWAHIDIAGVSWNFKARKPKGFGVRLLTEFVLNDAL
# NADPH oxidase 1 = molecular target: T6, NADPH oxidase 1 (Homo sapiens, UniProt Q9Y5S8); type: functional, cell-based;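 note: Cell-based assay with luminescence read-out, IC50 derived from inhibitor dose-response curves; intracellular ROS from endogenous NOX1 in intact HT29 colon cancer cells; potency of inhibitors that lower the ROS luminescence signal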
# T6 sequence (Q9Y5S8 whole entry): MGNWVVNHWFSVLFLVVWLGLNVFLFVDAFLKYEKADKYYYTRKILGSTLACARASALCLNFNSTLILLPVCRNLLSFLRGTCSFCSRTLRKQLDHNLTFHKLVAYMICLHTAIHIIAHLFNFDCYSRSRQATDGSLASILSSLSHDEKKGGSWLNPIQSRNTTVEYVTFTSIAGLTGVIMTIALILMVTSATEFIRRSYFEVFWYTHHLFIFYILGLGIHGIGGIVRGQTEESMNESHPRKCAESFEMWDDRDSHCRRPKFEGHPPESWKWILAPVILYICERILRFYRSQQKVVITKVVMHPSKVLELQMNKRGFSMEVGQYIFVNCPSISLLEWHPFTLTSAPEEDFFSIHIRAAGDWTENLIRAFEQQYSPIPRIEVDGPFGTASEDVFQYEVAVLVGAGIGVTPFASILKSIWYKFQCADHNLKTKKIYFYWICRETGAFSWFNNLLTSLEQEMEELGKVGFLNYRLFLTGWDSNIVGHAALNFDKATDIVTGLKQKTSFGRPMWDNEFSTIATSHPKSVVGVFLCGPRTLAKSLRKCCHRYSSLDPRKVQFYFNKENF
compound,measurement,setting,value
Cc1c(C(=O)Nc2nonc2-c2ccc(F)cc2)oc2ccc(F)cc12,EC50,Streptokinase A,27.7 µM (active)
same,EC50,[1],12.9 µM (active)
same,CC50,Vero,6.89 µM (active)
same,EC50,[2],> 120 µM (not active)
same,EC50,[3],3.52 µM (active)
same,EC50,[4],> 120 µM (not active)
same,EC50,[5],> 120 µM (not active)
same,EC50,Streptococcus,> 150 µM (not active)
COc1ccc(C(N)=NOC(=O)CN(C)S(=O)(=O)c2ccc(C)cc2)cc1,EC50,[6],> 79.4 µM (not active)
same,EC50,[7],> 79.4 µM (not active)
same,EC50,[8],> 79.4 µM (not active)
O=C(O)c1cccc2c1NC(c1ccc([N+](=O)[O-])cc1)C1CC=CC21 (stereo not drawn),EC50,Bcl-2-like protein 10,5.41 µM (active)
O=C1C(=Cc2cn(Cc3ccc(Cl)cc3)c3ccccc23)C(=O)c2ccccc21,EC50,Bcl-2-like protein 10,14.4 µM (active)
O=C(O)c1cccc(-n2c(/C=C/c3ccccc3)nc3ccccc3c2=O)c1,IC50,NS3,12.3 µM (not active)
CC(=O)c1cc(NC(=O)c2ccccc2)c(=O)oc1/C=C/N(C)C,AC50,Cytochrome P450 2D6,0.178 µM (inconclusive)
same,AC50,Cytochrome P450 2C19,39.8 µM (inconclusive)
same,IC50,Insulin-degrading enzyme,8.93 µM (active)
same,IC50,[9],> 55.7 µM (not active)
COc1ccc2oc3cc(C)[n+]([O-])c(-c4ccc(Cl)cc4)c3c2c1,IC50,[10],> 100 µM (active)
COC(=O)c1sccc1NC(=O)c1ccc(Br)s1,EC50,[6],8.67 µM (active)
same,EC50,[7],12.2 µM (not active)
same,EC50,[8],< 8.82 µM (active)
Cc1ccc(S(=O)(=O)N2CCC(=O)N(C(COCc3ccc(C(F)(F)F)cc3)C(C)C)CC2)cc1 (stereo not drawn),EC50,Mucolipin-3,3.92 µM (active)
same,EC50,Ion channel NompC,> 29.9 µM (not active)
O=C(/C=C/c1ccco1)Nc1cc(Cl)ccc1C(=O)O,IC50,Leucine aminopeptidase,74.4 µM (active)
same,IC50,[10],36.7 µM (active)
c1ccc(-c2nc(-c3ccccc3)c(-c3ccccc3)[nH]2)cc1,IC50,NADPH oxidase 1,> 17 µM (not active)
COc1ccc2c(c1)Nc1ccccc1S2,IC50,NADPH oxidase 1,0.913 µM (active)

# Reference: ChEMBL document CHEMBL1201862, “PubChem BioAssay data set” (2004)
